Paper PMC12505902, “Inhibitors of trehalose-6-phosphate synthase activity in fungal pathogens compromise thermal tolerance pathways” (mBio, 2025)

Assays:
[1] = molecular target: T1, 6xHis-CaTps1 (Candida albicans, UniProt Q92410); test: Microscale thermophoresis (MST); conditions: label-free MST, one-site binding model, n = 3, SD
T1 construct: Briefly, the full-length; thrombin cleavage site (pET-28a linker) (N); made in house; host or cells: E. coli BL21(DE3)pLysS
T1 sequence (Q92410 1-478): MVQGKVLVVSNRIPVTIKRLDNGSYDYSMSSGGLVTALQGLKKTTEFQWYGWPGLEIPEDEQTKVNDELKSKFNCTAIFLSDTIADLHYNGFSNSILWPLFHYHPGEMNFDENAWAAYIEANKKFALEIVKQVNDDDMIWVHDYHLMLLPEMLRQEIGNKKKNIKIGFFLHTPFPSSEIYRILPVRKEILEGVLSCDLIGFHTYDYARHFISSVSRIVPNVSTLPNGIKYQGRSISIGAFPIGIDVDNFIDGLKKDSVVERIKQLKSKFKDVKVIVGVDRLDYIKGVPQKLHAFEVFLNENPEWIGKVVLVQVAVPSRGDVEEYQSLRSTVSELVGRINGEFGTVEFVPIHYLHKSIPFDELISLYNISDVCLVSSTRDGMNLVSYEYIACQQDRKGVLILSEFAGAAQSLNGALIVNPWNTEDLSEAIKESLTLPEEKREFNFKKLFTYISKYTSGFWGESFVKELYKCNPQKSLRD
Experimental: (§1) Fig 2 4456dh binds Tps1 and inhibits Tps1 activity. (A) Structure of 4456dh. (B and C) Glo-melt thermal shift assays reveal 4456dh destabilizes 6xHis-CaTps1 (B) and 6xHis-CnTps1 (C). The first derivative of the raw data was used to determine the melting temperature of 1 µM 6xHis-CaTps1 (B) and 1 µM 6xHis-CnTps1 (C) treated without (black) or with 2 mM 4456dh (red). […] The resulting dose-response curves were fitted to a one-site binding model to extract Kd values; the SD was calculated using the Kd values from each independent experiment (n = 3). (F) Tps1 enzyme activity assay with 5 µM 6xHis-CaTps1 (F) and 6xHis-CnTps1 (G) ±1 mM 4456dh. Error bars represent SE. […]
(§2) Given the intrinsic fluorescence of CaTps1 and CnTps1, we were able to detect binding without the use of additional fluorophores. […]
(§3) 82 determined by SDS-PAGE analysis, were pooled and concentrated to 1 mg/mL for downstream […]
(§4) 93 The data were acquired with MO.Control 1.5.3 (NanoTemper Technologies GmbH). Recorded
(§5) 94 data were analyzed with MO.Affinity Analysis 2.2.7 (NanoTemper Technologies GmbH). […]
(§6) 100 2X Glo-melt dye. Thermal denaturation was measured using an RT-PCR thermocycler (BioRad) […]
(§7) 102 determined by identifying the inflection point of the derivative data. […]
(§8) 104 The catalytic activity of C. albicans Tps1 and C. neoformans Tps1 was measured via a continuous […]
(§9) 111 reaction rate was recorded using a plate reader (Tecan). […]

[2] = molecular target: 6xHis-CnTps1 (Cryptococcus neoformans var. grubii, UniProt J9VJZ1); test: Microscale thermophoresis (MST); conditions: label-free MST, one-site binding model, n = 3, SD
Experimental: as §1, §2, §3, §4, §5, §6, §7, §8, §9

Sequence of 6xHis-CnTps1 (J9VJZ1 entry or part of it): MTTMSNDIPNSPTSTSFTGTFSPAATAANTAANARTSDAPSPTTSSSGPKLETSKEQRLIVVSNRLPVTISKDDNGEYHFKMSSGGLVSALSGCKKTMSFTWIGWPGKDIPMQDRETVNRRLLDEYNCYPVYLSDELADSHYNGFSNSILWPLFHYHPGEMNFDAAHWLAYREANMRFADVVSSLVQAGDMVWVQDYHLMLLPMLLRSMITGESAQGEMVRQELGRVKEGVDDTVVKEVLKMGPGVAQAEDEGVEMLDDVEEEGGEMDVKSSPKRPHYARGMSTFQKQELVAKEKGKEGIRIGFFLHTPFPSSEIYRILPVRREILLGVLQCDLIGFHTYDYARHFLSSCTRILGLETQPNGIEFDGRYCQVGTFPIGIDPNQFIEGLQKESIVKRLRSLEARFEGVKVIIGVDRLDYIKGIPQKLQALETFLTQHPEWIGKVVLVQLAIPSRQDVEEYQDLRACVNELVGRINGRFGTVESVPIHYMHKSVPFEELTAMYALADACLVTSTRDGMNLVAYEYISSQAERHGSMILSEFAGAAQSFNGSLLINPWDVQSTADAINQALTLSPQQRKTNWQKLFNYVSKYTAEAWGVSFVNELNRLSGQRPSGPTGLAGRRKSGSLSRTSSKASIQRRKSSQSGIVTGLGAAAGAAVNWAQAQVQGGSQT

Cn1cc(-c2csc(NC(=O)Cc3ccccn3)n2)cn1 [Compound 4456dh] showed a Kd [1] of 7.1 µM and a Kd [2] of 33.4 µM.
